# Assay results from patent US20090088461A1, “Methods of Treating or Preventing Cardiac Disease Associated With a High Fat Diet” (Synvista Therapeutics, Inc., priority 2007, published 2009).
# Where two headings read alike, the source gives them in different places.
# Columns and labels:
# [1] = biological target: cross-linking of glycated bovine serum albumin (AGE-BSA) to the rat tail tendon collagen-coated 96-well plate (Bos taurus, UniProt P02769); assay: Cross-Linking Inhibition Assay; settings: for inhibition at 10000 µM: read-out: Relative Cross-link Inhibition (at 10 mM)
# Sequence of cross-linking of glycated bovine serum albumin (AGE-BSA) to the rat tail tendon collagen-coated 96-well plate (P02769 25-607): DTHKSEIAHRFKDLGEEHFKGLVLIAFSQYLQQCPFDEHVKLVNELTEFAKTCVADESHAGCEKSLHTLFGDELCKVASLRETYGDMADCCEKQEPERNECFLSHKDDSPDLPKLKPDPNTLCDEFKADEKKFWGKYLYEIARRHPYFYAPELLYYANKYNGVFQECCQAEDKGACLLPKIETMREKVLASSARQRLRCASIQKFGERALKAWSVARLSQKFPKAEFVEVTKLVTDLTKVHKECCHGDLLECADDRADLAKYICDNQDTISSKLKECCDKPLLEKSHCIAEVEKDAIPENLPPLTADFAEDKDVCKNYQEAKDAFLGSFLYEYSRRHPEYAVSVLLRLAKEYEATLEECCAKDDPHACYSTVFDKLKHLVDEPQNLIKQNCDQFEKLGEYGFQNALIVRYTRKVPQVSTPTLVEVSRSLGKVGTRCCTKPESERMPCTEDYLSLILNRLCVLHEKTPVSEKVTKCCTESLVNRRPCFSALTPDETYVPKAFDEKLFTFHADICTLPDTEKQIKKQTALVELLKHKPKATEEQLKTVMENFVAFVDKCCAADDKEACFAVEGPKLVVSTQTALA
# Protocol: The following method was used to evaluate the ability of the compounds of the present invention to inhibit the cross-linking of glycated bovine serum albumin (AGE-BSA) to the rat tail tendon collagen-coated 96-well plate.
# The blocking solution was removed from the wells by, washing the plate twice with PBS-'Tween 20 solution (0.05% Tween 20) using a NUNq-multiprobe or Dynatech ELISA-plate washer. Cross-linking of AGE-BSA (1 to 10 mg per well depending on the batch of AGE-BSA) to rat tail tendon collagen coated plate was performed with and without the testing ‘compound dissolved in PBS buffer at pH 7.4 at the desired concentrations by the, addition of 50 μl each of the AGE-BSA diluted in PBS or in the solution of test compound at 37° C. for 4 hours.
# Unbrowned BSA in PBS buffer with or without testing compound were added to the separate wells as the blanks. The un-cross-linked AGE-BSA was then removed by washing the wells three times with PBS-Tween buffer. The amount of AGE-BSA cross-linked to the tail tendon collagen-coated plate was then quantitated using a polyclonal antibody raised against AGE-RNase. After a one-hour incubation period, AGE antibody was removed by washing 4 times with PBS-Tween.
# The bound AGE antibody was then detected with the addition of horseradish peroxidase-conjugated secondary antibody—goat anti-rabbit immunoglobulin and incubation for 30 minutes. […] The reaction was allowed for an additional 15 minutes and the absorbance was read at 410 nm in a Dynatech plate reader.
# [2] = biological target: T1, AGE-BSA previously crosslinked to the collagen (Bos taurus, UniProt P02769); assay: Cross-Link Breaking Assay (sandwich enzyme immunoassay); type: biochemical; settings: for Breaking Anti-AGE: anti-AGE antibody; for Breaking Anti-BSA: anti-BSA antibody
# T1 construct: Bovine Serum Albumin (Type V), (BSA) Calbiochem; purchased Calbiochem (BSA Type V); Collaborative Biomedical Products (Biocoat collagen plates)
# T1 sequence (P02769 25-607): as above
# T1 sequence (P02454 152-1207 partner limits assumed): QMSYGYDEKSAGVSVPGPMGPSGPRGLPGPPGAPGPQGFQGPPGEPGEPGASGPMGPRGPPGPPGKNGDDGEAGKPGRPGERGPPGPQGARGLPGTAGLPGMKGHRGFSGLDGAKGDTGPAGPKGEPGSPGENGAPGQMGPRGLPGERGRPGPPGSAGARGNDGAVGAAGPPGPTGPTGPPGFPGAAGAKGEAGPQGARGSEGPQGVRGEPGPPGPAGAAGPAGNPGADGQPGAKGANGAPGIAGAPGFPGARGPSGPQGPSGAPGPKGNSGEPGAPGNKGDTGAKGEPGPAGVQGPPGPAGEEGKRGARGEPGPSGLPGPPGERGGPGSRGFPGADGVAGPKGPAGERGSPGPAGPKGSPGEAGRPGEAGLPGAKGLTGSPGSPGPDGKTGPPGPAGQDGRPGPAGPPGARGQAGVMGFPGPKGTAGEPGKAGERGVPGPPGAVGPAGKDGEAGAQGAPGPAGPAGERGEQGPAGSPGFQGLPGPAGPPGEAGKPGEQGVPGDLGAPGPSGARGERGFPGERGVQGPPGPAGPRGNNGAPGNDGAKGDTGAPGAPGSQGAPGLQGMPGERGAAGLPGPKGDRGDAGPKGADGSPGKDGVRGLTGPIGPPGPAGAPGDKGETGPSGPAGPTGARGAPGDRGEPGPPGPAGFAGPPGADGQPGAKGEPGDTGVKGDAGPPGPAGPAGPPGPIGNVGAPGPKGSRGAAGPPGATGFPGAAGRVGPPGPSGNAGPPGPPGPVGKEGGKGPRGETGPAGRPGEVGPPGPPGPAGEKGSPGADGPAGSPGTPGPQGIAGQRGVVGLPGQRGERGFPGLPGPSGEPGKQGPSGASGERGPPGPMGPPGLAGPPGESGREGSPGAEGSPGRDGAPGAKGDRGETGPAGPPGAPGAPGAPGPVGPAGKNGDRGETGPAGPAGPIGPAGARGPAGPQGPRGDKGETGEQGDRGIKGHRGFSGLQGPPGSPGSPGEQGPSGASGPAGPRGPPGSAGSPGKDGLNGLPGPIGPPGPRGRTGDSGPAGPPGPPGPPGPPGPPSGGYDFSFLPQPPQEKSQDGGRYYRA
# T1 sequence (P02466 86-1125 partner limits assumed): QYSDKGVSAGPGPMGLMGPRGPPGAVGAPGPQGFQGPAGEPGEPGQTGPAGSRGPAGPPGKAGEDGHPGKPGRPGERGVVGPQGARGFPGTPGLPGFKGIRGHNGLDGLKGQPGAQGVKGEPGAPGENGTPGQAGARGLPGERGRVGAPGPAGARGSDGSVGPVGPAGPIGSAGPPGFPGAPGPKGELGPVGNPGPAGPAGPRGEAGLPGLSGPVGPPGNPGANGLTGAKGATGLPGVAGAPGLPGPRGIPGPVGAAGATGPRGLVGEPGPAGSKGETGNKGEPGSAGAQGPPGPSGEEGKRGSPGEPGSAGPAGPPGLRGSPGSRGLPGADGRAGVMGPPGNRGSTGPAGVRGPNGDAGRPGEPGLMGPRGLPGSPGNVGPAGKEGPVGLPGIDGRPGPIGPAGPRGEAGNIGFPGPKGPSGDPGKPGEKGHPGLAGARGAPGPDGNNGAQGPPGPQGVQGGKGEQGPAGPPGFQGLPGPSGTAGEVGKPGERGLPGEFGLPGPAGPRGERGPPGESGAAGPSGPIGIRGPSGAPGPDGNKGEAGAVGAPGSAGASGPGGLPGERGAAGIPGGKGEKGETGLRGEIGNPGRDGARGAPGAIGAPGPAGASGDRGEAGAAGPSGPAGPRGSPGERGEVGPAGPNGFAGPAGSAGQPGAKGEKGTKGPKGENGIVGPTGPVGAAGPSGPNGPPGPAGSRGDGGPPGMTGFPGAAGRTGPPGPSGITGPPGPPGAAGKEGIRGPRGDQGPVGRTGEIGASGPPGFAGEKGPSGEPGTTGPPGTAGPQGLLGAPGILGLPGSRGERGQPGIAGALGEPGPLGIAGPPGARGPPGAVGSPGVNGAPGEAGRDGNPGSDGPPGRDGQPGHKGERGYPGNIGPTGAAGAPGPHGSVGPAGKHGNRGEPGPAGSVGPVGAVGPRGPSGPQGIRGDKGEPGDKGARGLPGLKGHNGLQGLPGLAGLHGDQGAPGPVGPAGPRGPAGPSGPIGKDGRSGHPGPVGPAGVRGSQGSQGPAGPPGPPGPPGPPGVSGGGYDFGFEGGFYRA
# Protocol: The present invention also involves a novel sandwich enzyme immunoassay used to ascertain the ability of test compounds to “break” or reverse already formed advanced glycosylation endproducts by detecting the breaking of AGE (Advanced glycosylation endproduct) moieties from AGE-crosslinked protein. This assay comprises:
# a) incubation of AGE-modified bovine serum albumin (AGE BSA) on collagen-coated wells of microtiter plates for a period of 2-6 hours' at a temperature of 37° C.
# b) washing of the wells with PBS-Tween;
# c) application of the test compounds to the washed wells of step b;
# d) incubation of the test compounds applied to the washed wells for an additional 12-24 hours at a temperature of about 37° C.; and
# e) detection of the AGE-breaking using an antibody raised against AGE-ribonuclease or cross-link breaking with an antibody against BSA.
# In order to ascertain the ability of the compounds of the instant invention to “break” or reverse already formed advanced glycosylation endproducts, a novel sandwich enzyme immunoassay was developed which detects breaking of AGE (Advanced glycosylation endproduct) moieties from AGE-crosslinked protein. The assay utilizes collagen-coated 96 well microtiter plates that are obtained commercially. […] Following an incubation period of 16 hours (37° C.) cross-link-breaking is detected using an antibody raised against AGE-ribonuclease or with an antibody against BSA. […] Details of the assay are as follows:
# 1. AGE-BSA stock solutions were prepared as follows. Sodium phosphate buffer (0.4 M) was prepared by dissolving 6 grams of monobasic sodium phosphate in 100 ml of distilled water, 7 grams of dibasic sodium phosphate (0.4 M) in 100 ml of distilled water and adjusting the pH of the dibasic solution to 7.4 with the monobasic solution. Sodium azide (0.02 grams) was added per 100 ml volume to inhibit bacterial growth. The BSA solution was prepared as follows: 400 mg of Type V BSA (bovine serum albumin) was added for each ml of sodium phosphate buffer (above). A 400 mM glucose solution was prepared by dissolving 7.2 grams of dextrose in 100 ml of sodium phosphate buffer (above). The BSA and glucose solutions were mixed 1:1 and incubated at 37° C. for 12 weeks. The pH of the incubation mixture was monitored weekly and adjusted to pH 7.4 if necessary. After 12 weeks, the AGE-BSA solution was dialyzed against PBS for 48 hours with four buffer changes, each at a 1:500 ratio of solution to dialysis buffer. Protein concentration was determined by the micro-Lowry method. The AGE-BSA stock solution was aliquoted and stored at −20° C.
# 2. Working solutions for crosslinking and breaking studies were prepared as follows. Test compounds were dissolved in PBS and the pH was adjusted to pH 7.4 if necessary. AGE-BSA stock solution was diluted in PBS to measure maximum crosslinking and in the inhibitor solution for testing inhibitory activity of compounds. The concentration of AGE-BSA necessary to achieve the optimum sensitivity was determined by initial titration of each lot of AGE-BSA.
# 3. Wash buffer (“PBS-Tween”) was, prepared as follows. PBS was prepared by dissolving the following salts in one liter of distilled water: NaCl, 8 grams; KCl, 0.2 gram, KH2PO4. […] Tween-20 was added to a final concentration of 0.05% (vol/vol).
# 4. Substrates for detection of secondary antibody binding were prepared by diluting the HRP substrate buffer 1:10 in distilled water and mixing with ABTS chromogen 1:50 just prior to use.
# 1. Biocoat plates were blocked with 300 μl of “Superbloc”. Plates were blocked for one hour at room temperature and were washed with PBS-Tween three times with the Dynatech platewasher before addition of test reagents.
# 2. Each experiment was set up in the following manner. The first three wells of the Biocoat plate were used for the reagent blank. Fifty microliters of solutions AGE-BSA were added to test wells in triplicate and only PBS in blank wells.
# [3] = system: IgG crosslinked to circulating red blood cells; assay: RBC-IgG assay; type: in vivo; settings: streptozotocin-induced diabetic rats, dosed orally 10 mg/kg body weight, 19 days
# Text: 2. […] 3. […] 4. […] 5. […] 6. […] 7. […] 8.
# 10. […] 11. […] 12. […] 13. […] 14. […] 15. […] 16. […] 17.
# [4] = Reaction with 1-phenyl-1,2-propanedione
# [5] = biological target: AGE-crosslinks that form when AGE-modified BSA (AGE-BSA) is allowed to react with unmodified, native collagen (Bos taurus, UniProt P02769); assay: Release of BSA from pre-formed AGE-BSA/collagen complexes; type: biochemical
# Sequence of AGE-crosslinks that form when AGE-modified BSA (AGE-BSA) is allowed to react with unmodified, native collagen (P02769 25-607): as the sequence (P02769 25-607) above
# Text: Once early, addition products form on proteins, further reactions can ensue to effect a covalent, protein-protein crosslinking reaction. In this regard, a compound of the formula I, N-phenacylthiazolium bromide, was allowed to react with the AGE-crosslinks that form when AGE-modified BSA (AGE-BSA) is allowed to react with unmodified, native collagen. […] Again, this confirmed that a significant portion of the AGE-crosslinks that form under experimental conditions consist of an α-diketone or related structure that is susceptible to cleavage by the advantageous bidentate-type molecules of the compounds of formula I under physiological conditions.
structure (smiles),measurement,setting,value
"Cc1c[n+](CC(=O)c2cc(C(C)(C)C)c(O)c(C(C)(C)C)c2)cs1 [3-[2-(3′,5′-di-tert-butyl-4′-hydroxyphenyl)-2-oxoethyl)-5-methyl-thiazolium bromide]",IC50,[1],0.78 mM
same,inhibition at 1000 µM,[1]; read-out: Relative Cross-link Inhibition,69%
same,Breaking Anti-AGE,[2]; at 1 mM,65%
same,Breaking Anti-BSA,[2]; at 1 mM,69%
same,Breaking Anti-AGE,[2]; at 10 mM,48%
same,Breaking Anti-BSA,[2]; at 10 mM,49%
same,IC50,"[2]; detection with anti-AGE antibody, read-out: IC50 (mM) Anti-AGE",3 mM
same,Percent Inhibition (percent breaking of RBC-IgG),[3],65 ± 15 @ 19 days %
"Cc1sc[n+](CC(=O)c2ccccc2)c1C.[Br-] [3-(2-phenyl-2-oxoethyl)-4,5-dimethylthiazolium bromide]",inhibition at 10000 µM,[1],37%
same,Breaking Anti-AGE,[2]; at 30 mM,56%/ND (30)
COC(=O)C[n+]1csc2ccccc21.[Br-] [3-(2-methoxy-2-oxoethyl)-benzothiazolium bromide],IC50,[1],> 10 mM
same,inhibition at 10000 µM,[1],35%
same,Breaking Anti-AGE,[2]; at 30 mM,66%
same,Breaking Anti-BSA,[2]; at 30 mM,37%
"Cc1sc[n+](CC(N)=O)c1C.[Br-] [3-(2-amino-2-oxoethyl)-4,5-dimethyl-thiazolium bromide]",IC50,[1],9.9 mM
same,Breaking Anti-AGE,[2]; at 30 mM,61%
same,Breaking Anti-BSA,[2]; at 30 mM,16%
O=C(C[n+]1ccsc1)c1ccccc1.[Br-] [3-(2-phenyl-2-oxoethyl)thiazolium bromide],"reaction with 1-phenyl-1,2-propanedione to produce benzoic acid",[4],rapid and readily proceeded
same,IC50,[1],11.1 mM
same,inhibition at 10000 µM,[1],34%
same,Breaking Anti-AGE,[2]; concentration not given,73%
same,Breaking Anti-BSA,[2]; concentration not given,98%
same,release of BSA from the pre-formed AGE-mediated complexes,[5],concentration-dependent release of BSA
CCOC(=O)c1ccc(NC(=O)C[n+]2csc(CCO)c2C)cc1.[Br-] [3-(2-4′-carbethoxyanilino)-2-oxoethyl]-4-methyl-5-(2′-hydroxyethyl)-thiazolium bromide],Relative Cross-link Inhibition,[1]; 1 mM,8.8% (1 mm)
same,Breaking Anti-AGE,[2]; at 10 mM,48%
same,Breaking Anti-BSA,[2]; at 10 mM,57%
C=Cc1sc[n+](CC(=O)c2ccccc2)c1C.[Br-] [3-(2-phenyl-2-oxoethyl)-4-methyl-5-vinyl-thiazolium bromide],Breaking Anti-AGE,[2]; at 1 mM,62%
same,Breaking Anti-BSA,[2]; at 1 mM,82%
same,IC50,"[2]; detection with anti-BSA antibody, read-out: IC50 (mM) Anti-BSA",0.1 mM
same,Percent Inhibition (percent breaking of RBC-IgG),[3],58 ± 21 ® 19 days %
Cc1csc[n+]1CC(=O)c1ccccc1.[Br-] [3-(2-phenyl-2-oxoethyl)-4-methylthiazolium bromide],IC50,[1],5.6 mM
same,Breaking Anti-AGE,[2]; at 30 mM,68%
same,Breaking Anti-BSA,[2]; at 30 mM,66%
"Cc1csc[n+]1CC(=O)c1cc(C(C)(C)C)c(O)c(C(C)(C)C)c1.[Br-] [3-[2-(3′,5′-di-tert-butyl-4′-hydroxyphenyl)-2-oxoethyl]-4-methyl-thiazolium bromide]",Relative Cross-link Inhibition,[1]; 0.3 mM,24% @ 0.3 mM
same,Breaking Anti-AGE,[2]; at 0.3 mM,14%
same,Breaking Anti-BSA,[2]; at 0.3 mM,2%
"COC(=O)C[n+]1csc(C)c1C.[Br-] [3-(2-methoxy-2-oxoethyl)-4,5-dimethylthiazolium bromide]",IC50,[1],0.48 mM
same,Breaking Anti-AGE,[2]; at 30 mM,63%
same,Breaking Anti-BSA,[2]; at 30 mM,47%
Cc1c(CCO)sc[n+]1CC(=O)c1ccc2ccccc2c1.[Br-] [3-(2-(2′-naphthyl)-2-oxoethyl]-4-methyl-5-(2′-hydroxyethyl)-thiazolium bromide],Relative Cross-link Inhibition (at 10 mM),[1],61%
same,Breaking Anti-AGE,[2]; at 10 mM,52%
same,Breaking Anti-BSA,[2]; at 10 mM,61%
same,Percent Inhibition (percent breaking of RBC-IgG),[3],40 ± 24 @ 19 days %
COC(=O)C[n+]1cscc1C.[Br-] [3-(2-methoxy-2-oxoethyl)-4-methylthiazolium bromide],inhibition at 10000 µM,[1],58%
same,Breaking Anti-AGE,[2]; at 30 mM,54%
same,Breaking Anti-BSA,[2]; at 30 mM,51%
"Cc1c(CCO)sc[n+]1CC(=O)c1ccc2c(c1)OCCO2.[Br-] [3 (2-(1′,4′-benzodioxan-6-yl)-2-oxoethyl]-4-methyl-5-(2′-hydroxyethyl)-thiazolium bromide]",Relative Cross-link Inhibition (at 10 mM),[1],13%
same,Breaking Anti-AGE,[2]; at 3 mM,11%
same,Breaking Anti-BSA,[2]; at 3 mM,21%
"Cc1c(CCOCc2c(Cl)cccc2Cl)sc[n+]1N.Cc1cc(C)c(S(=O)(=O)[O-])c(C)c1 [3-amino-4-methyl-5-(2(2′,6′-dichlorobenzyloxy)ethyl]-thiazolium mesitylenesulfonate]",Relative Cross-link Inhibition,[1]; 3 mM,26.5% (3 mm)
same,Breaking Anti-AGE,[2]; at 10 mM,31%
same,Breaking Anti-BSA,[2]; at 10 mM,54%
CCCCN(CCCC)C(=O)C[n+]1csc(CCO)c1C.[Br-] [3-(2-Dibutylamino-2-oxoethyl]-4-methyl-5-(2′-hydroxyethyl)-thiazolium bromide],inhibition at 10000 µM,[1],0.8%
same,Breaking Anti-AGE,[2]; at 10 mM,25%
same,Breaking Anti-BSA,[2]; at 10 mM,38%
Cc1csc[n+]1CC(N)=O.[Br-] [3-(2-amino-2-oxoethyl)-4-methyl-thiazolium bromide],IC50,[1],0.7 mM
same,Breaking Anti-AGE,[2]; at 30 mM,89%
same,Breaking Anti-BSA,[2]; at 30 mM,44%
COC(=O)C[n+]1csc(C)c1.[Br-] [3-(2-methoxy-2-oxoethyl)-5-methyl-thiazolium bromide],IC50,[1],3.2 mM
same,Breaking Anti-AGE,[2]; at 30 mM,72%
same,Breaking Anti-BSA,[2]; at 30 mM,27%
Cc1c(CCO)sc[n+]1CC(=O)c1ccccc1.[Br-] [3-(2-phenyl-2-oxoethyl)-4-methyl-5-(2-hydroxyethyl)-thiazolium bromide],IC50,[1],> 10 mM
same,inhibition at 10000 µM,[1],36%
same,Breaking Anti-AGE,[2]; at 30 mM,67%
same,Breaking Anti-BSA,[2]; at 30 mM,13%
